Measured values published in paper PMC3176174 (OncoTargets and therapy, 2011).
*1 amine or outer side, *2 acyl side, *3 side chain or, on linkers, in order; H or OH if unused. Where a SMILES comes first, the peptide text is derived from it. Bridges are numbered along the chain shown (N, C = ends). Roman numbers before positions name the chains, in order. [ ]: non-standard residue; d: D form. Actinocin(9to1) = Cc1c2oc3c(C)ccc(C(=O)[*:1])c3nc-2c(C(=O)[*:2])c(N)c1=O; NMeV = CN[C@H](C(=O)O)C(C)C; Sar = CNCC(=O)O

Assays:
Type in all cases: cell-based, human
[1] = system: MOLT-3 cell line; assay: cells
[2] = system: MLL-rearranged leukemia cell lines (SEM, B1, KOPN8, MOLT-3, TIB-202); assay: In-vitro cytotoxicity across the panel of leukemia cell lines
[3] = system: SEM cell line; assay: cells
[4] = system: KOPN8 cell line; assay: cells
[5] = system: B1 cell line; assay: cells
[6] = system: TIB-202 cell line; assay: cells
[7] = Homo sapiens, all five MLL-rearranged cell lines

Compound	IC50 ([1]; Table S1, MOLT-3, 96 hours) [µM]	IC50 ([2]; for four of five cell lines) [nM]	IC50 ([3]; Table S1, SEM, 96 hours) [µM]	IC50 ([4]; Table S1, KOPN8, 96 hours) [µM]	IC50 ([5]; Table S1, B1, 96 hours) [µM]	IC50 ([6]; Table S1, TIB-202, 96 hours) [µM]	IC50 ([1]; Homo sapiens, MOLT-3, 96 h) [µM]	IC50 [2, 7] [nM]	IC50 ([2]; Homo sapiens, leukemia cell lines tested, screen) [nM]	IC50 ([3]; Homo sapiens, 96 h) [µM]	IC50 ([4]; Homo sapiens, KOPN-8, 96 h) [µM]	IC50 ([5]; Homo sapiens, 96 h) [µM]	IC50 ([6]; Homo sapiens, 96 h) [µM]	IC50 ([4]; Homo sapiens, KOPN-8) [µM]
Nc1nc(F)nc2c1ncn2[C@@H]1O[C@H](CO)[C@@H](O)[C@@H]1O [Fludarabine]	> 10	< 1000	0.0887	0.0705	0.0909	0.0731	–	–	–	–	–	–	–	–
Nc1ccn([C@@H]2O[C@H](CO)[C@@H](O)C2(F)F)c(=O)n1 [Gemcitabine]	–	–	–	–	–	–	< 0.01	< 1000	< 50	< 0.01	< 0.005	0.0257	0.0565	–
Cc1cn(-c2cc(NC(=O)c3ccc(C)c(Nc4nccc(-c5cccnc5)n4)c3)cc(C(F)(F)F)c2)cn1 [Nilotinib]	–	–	–	–	–	–	> 10	–	–	> 10	> 10	< 0.01	< 0.01	–
CCN(CC)CCCC(C)Nc1c2ccc(Cl)cc2nc2ccc(OC)cc12 (stereo not drawn) [Acrichine]	–	–	–	–	–	–	4.07	–	–	6.4	–	4.63	4.5	0.722
O=C1CCC(N2C(=O)c3ccccc3C2=O)C(=O)N1 (stereo not drawn) [Thalidomide]	–	–	–	–	–	–	> 10	–	–	> 10	> 5	> 10	> 5	–
CN(N=O)C(=O)N[C@@H](C=O)[C@@H](O)[C@H](O)[C@H](O)CO [Streptozocin]	–	–	–	–	–	–	> 10	–	–	> 10	> 5	> 10	> 5	–
O=NN(CCCl)C(=O)NCCCl [Carmustine]	–	–	–	–	–	–	> 10	–	–	> 10	> 5	> 10	> 5	–
O=c1[nH]c(=O)n([C@H]2C[C@H](O)[C@@H](CO)O2)cc1F [Floxuridine]	–	–	–	–	–	–	> 10	–	–	> 10	> 5	8.48	> 5	–
O=P1(N(CCCl)CCCl)NCCCO1 (stereo not drawn) [Cyclophosphamide]	–	–	–	–	–	–	> 10	–	–	> 10	> 5	> 10	> 5	–
O=P1(NCCCl)OCCCN1CCCl (stereo not drawn) [Ifosfamide]	–	–	–	–	–	–	> 10	–	–	> 10	> 5	> 10	> 5	–
Nc1nc2nc[nH]c2c(=S)[nH]1 [Thioguanine]	–	–	–	–	–	–	7.05	–	–	0.938	4.5	8.77	5.2	–
CC(C)Cn1cnc2c(N)nc3ccccc3c21 [Imiquimod]	–	–	–	–	–	–	> 10	–	–	> 10	2.9	> 10	> 10	–
CO[C@H]1C[C@@H]2CC[C@@H](C)[C@@](O)(O2)C(=O)C(=O)N2CCCC[C@H]2C(=O)O[C@H]([C@H](C)C[C@@H]2CC[C@@H](O)[C@H](OC)C2)CC(=O)[C@H](C)/C=C(\C)[C@@H](O)[C@@H](OC)C(=O)[C@H](C)C[C@H](C)/C=C/C=C/C=C/1C [Rapamycin]	–	–	–	–	–	–	< 0.01	–	–	< 0.01	< 0.01	0.00804	7.05	–
CS(=O)(=O)OCCCCOS(C)(=O)=O [Busulfan]	–	–	–	–	–	–	6.36	–	–	> 10	> 5	> 10	> 5	–
C=C1C[C@@H]2[C@H](CC[C@]3(C)C(=O)CC[C@@H]23)[C@@]2(C)C=CC(=O)C=C12 [Exemestane]	–	–	–	–	–	–	> 10	–	–	2.08	8.89	> 10	> 10	–
C[C@]12CC[C@@H]3c4ccc(OC(=O)N(CCCl)CCCl)cc4CC[C@H]3[C@@H]1CC[C@@H]2O [Estramustine]	–	–	–	–	–	–	> 10	–	–	> 10	> 10	> 10	> 10	–
CO[C@H]1C[C@@H]2CC[C@@H](C)[C@@](O)(O2)C(=O)C(=O)N2CCCC[C@H]2C(=O)O[C@H]([C@H](C)C[C@@H]2CC[C@@H](OCCO)[C@H](OC)C2)CC(=O)[C@H](C)/C=C(\C)[C@@H](O)[C@@H](OC)C(=O)[C@H](C)C[C@H](C)/C=C/C=C/C=C/1C [Everolimus]	–	–	–	–	–	–	> 10	–	–	< 0.01	< 0.01	0.834	< 0.01	–
OC[C@H]1O[C@@H](n2cnc3c2NC=NC[C@H]3O)C[C@@H]1O [Pentostatin]	–	–	–	–	–	–	> 10	–	–	> 10	> 5	> 10	> 5	–
CN(C)c1nc(N(C)C)nc(N(C)C)n1 [Altretamine]	–	–	–	–	–	–	> 10	–	–	> 10	> 10	> 10	> 10	–
Cc1c2oc3c(C)ccc(C(=O)N[C@@H]4C(=O)N[C@H](C(C)C)C(=O)N5CCC[C@H]5C(=O)N(C)CC(=O)N(C)[C@@H](C(C)C)C(=O)O[C@@H]4C)c3nc-2c(C(=O)N[C@@H]2C(=O)N[C@H](C(C)C)C(=O)N3CCC[C@H]3C(=O)N(C)CC(=O)N(C)[C@@H](C(C)C)C(=O)O[C@@H]2C)c(N)c1=O [Dactinomycin] (I: T[dV]P[Sar][NMeV] / II: T[dV]P[Sar][NMeV]; ester I:1-I:C, II:1-II:C; linker I:N-II:N via Actinocin(9to1))	–	–	–	–	–	–	< 0.01	< 1000	–	< 0.01	–	< 0.01	< 1e-05	–
O=c1[nH]cc(F)c(=O)[nH]1 [Fluorouracil]	–	–	–	–	–	–	7.11	–	–	> 10	> 5	> 10	> 5	–

Compound	IC50 ([1]; Table S1, MOLT-3, 96 hours) [µM]	IC50 ([2]; for four of five cell lines) [nM]	IC50 ([3]; Table S1, SEM, 96 hours) [µM]	IC50 ([4]; Table S1, KOPN8, 96 hours) [µM]	IC50 ([5]; Table S1, B1, 96 hours) [µM]	IC50 ([6]; Table S1, TIB-202, 96 hours) [µM]	IC50 ([1]; Homo sapiens, MOLT-3, 96 h) [µM]	IC50 [2, 7] [nM]	IC50 ([2]; Homo sapiens, leukemia cell lines tested, screen) [nM]	IC50 ([3]; Homo sapiens, 96 h) [µM]	IC50 ([4]; Homo sapiens, KOPN-8, 96 h) [µM]	IC50 ([5]; Homo sapiens, 96 h) [µM]	IC50 ([6]; Homo sapiens, 96 h) [µM]	IC50 ([4]; Homo sapiens, KOPN-8) [µM]
CCCCCOC(=O)Nc1nc(=O)n([C@@H]2O[C@H](C)[C@@H](O)[C@H]2O)cc1F [Capecitabine]	–	–	–	–	–	–	> 10	–	–	> 10	> 10	> 10	> 10	–
Oc1ncc(N(CCCl)CCCl)c(O)n1 [Uracil mustard]	–	–	–	–	–	–	9.66	–	–	4.85	2.22	3.65	2.7	–
Nc1cccc2c1CN(C1CCC(=O)NC1=O)C2=O (stereo not drawn) [Lenalidomide]	–	–	–	–	–	–	10	–	–	> 10	> 10	> 10	> 10	–
N.N.[Cl][Pt][Cl] [Cisplatin]	> 10	–	> 10	> 5	> 10	> 5	–	–	–	–	–	–	–	–
Bleomycin	8.42	–	< 0.01	0.108	2.92	1.07	–	–	–	–	–	–	–	–
CN(C)/N=N/c1[nH]cnc1C(N)=O [Dacarbazine]	–	–	–	–	–	–	> 10	–	–	> 10	> 10	> 10	> 10	–
O=NN(CCCl)C(=O)NC1CCCCC1 [Lomustine]	–	–	–	–	–	–	> 10	–	–	9.35	> 5	8.32	> 5	–
S=P(N1CC1)(N1CC1)N1CC1 [Thiotepa]	–	–	–	–	–	–	3.01	–	–	3.78	1.96	6.38	5	–
CNC(=O)c1cc(Oc2ccc(NC(=O)Nc3ccc(Cl)c(C(F)(F)F)c3)cc2)ccn1 [Sorafenib]	–	–	–	–	–	–	9.63	–	–	1.54	3.86	5.66	5.95	–
CC(=O)O[C@]1(C(C)=O)CC[C@H]2[C@@H]3C=C(C)C4=CC(=O)CC[C@]4(C)[C@H]3CC[C@@]21C [Megestrol acetate]	–	–	–	–	–	–	> 10	–	–	> 10	> 5	> 10	> 5	–
Cc1ccc(-c2cc(C(F)(F)F)nn2-c2ccc(S(N)(=O)=O)cc2)cc1 [Celecoxib]	–	–	–	–	–	–	> 10	–	–	> 10	> 10	> 10	> 10	–
CC(C)C[C@H](NC(=O)[C@H](Cc1ccccc1)NC(=O)c1cnccn1)B(O)O [Bortezomib]	–	–	–	–	–	–	> 10	–	–	< 0.01	< 0.01	0.00397	0.00571	–
C#Cc1cccc(Nc2ncnc3cc(OCCOC)c(OCCOC)cc23)c1 [Erlotinib]	–	–	–	–	–	–	5.7	–	–	1	5.82	2.98	6.68	–
NC(=O)NO [Hydroxyurea]	> 10	–	> 10	> 5	> 10	> 5	–	–	–	–	–	–	–	–
CC1=C(/C=C/C(C)=C/C=C/C(C)=C/C(=O)O)C(C)(C)CCC1 [Tretinoin]	–	–	–	–	–	–	> 10	–	–	> 10	> 5	> 10	> 5	–
CCN(CC)CCNC(=O)c1c(C)[nH]c(/C=C2\C(=O)Nc3ccc(F)cc32)c1C [Sunitinib]	–	–	–	–	–	–	> 10	–	–	0.135	3.3	5.36	3.29	–
O=C(CCBr)N1CCN(C(=O)CCBr)CC1 [Pipobroman]	–	–	–	–	–	–	6.35	–	–	4.32	0.389	2.63	4.34	–
S=c1[nH]cnc2nc[nH]c12 [Mercaptopurine]	–	–	–	–	–	–	> 10	–	–	> 10	> 5	> 10	> 5	–
O=C(c1ccc(OCCN2CCCCC2)cc1)c1c(-c2ccc(O)cc2)sc2cc(O)ccc12 [Raloxifene]	–	–	–	–	–	–	> 10	–	–	4.44	8.3	> 10	> 10	–
COc1c2occc2cc2ccc(=O)oc12 [Methoxsalen]	–	–	–	–	–	–	> 10	–	–	> 10	> 5	> 10	> 5	–
C[C@]12CC[C@@H]3c4ccc(O)cc4C[C@@H](CCCCCCCCC[S+]([O-])CCCC(F)(F)C(F)(F)F)[C@H]3[C@@H]1CC[C@@H]2O (stereo partly drawn) [Fulvestrant]	–	–	–	–	–	–	> 10	–	–	> 10	7.64	> 10	> 10	–
